Source: patent EP0377642B1, “HERBICIDES FOR WEED CONTROL IN RICE” (E.I. DU PONT DE NEMOURS AND COMPANY, priority 1987, dated 1989)

Key:
Eclipta alba = test: Herbicidal efficacy in United States (Table 16); assay type: in vivo; settings: 57 days after application
From the text: (§1) Methyl 2-[[[[(4-methoxy-6-methyl-1,3,5-triazin-2-yl)amino]carbonyl]amino]sulfonyl]benzoate (Compound 1) and mixtures thereof with other compounds were applied as a spray (using a hand sprayer) to rice (either transplanted or direct seeded) in several rice growing areas in Southeast Asia and in the U.S. Tables 1-28 contain the results of these tests and clearly exemplify the utility of this invention. The details of each application are included in the appropriate table. [drawing 2]

Sesbania exaltata = test: Herbicidal efficacy in United States (Table 16); assay type: in vivo; settings: 57 days after application
From the text: as §1

COC(=O)c1ccccc1S(=O)(=O)NC(=O)Nc1nc(C)nc(OC)n1 [Compound 1, Methyl 2-[[[[(4-methoxy-6-methyl-1,3,5-triazin-2-yl)amino]carbonyl]amino]sulfonyl]benzoate]
97%: % CONTROL OR INJURY EA (Eclipta alba; 7 GAI/HA) | % CONTROL OR INJURY SE (Sesbania exaltata; 7 GAI/HA)
98%: % CONTROL OR INJURY EA (Eclipta alba; 14 GAI/HA) | % CONTROL OR INJURY EA (Eclipta alba; 21 GAI/HA) | % CONTROL OR INJURY SE (Sesbania exaltata; 14 GAI/HA) | % CONTROL OR INJURY SE (Sesbania exaltata; 21 GAI/HA)
